Assay results reported in PubChem BioAssay AID248 (DTP/NCI, 2004).
Values joined by “and” are separate entries in the source; they are usually repeats but may differ in a detail not shown here. Equal entries are not always repeated. Inconclusive results and toxic doses are left out. No stated cut-off is given here; in the data, active means T/C of 150% or more; inactive means T/C below 125%.

Tested on: L1210 leukemia ip in BDF1 mice, survival T/C
Experiment: NCI In Vivo Anticancer Drug Screen. Data for tumor model L1210 Leukemia (intraperitoneal) in B6D2F1 (BDF1) mice
Conditions: endpoint: mean survival time, higher = longer survival
Procedure, shortened: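 Ratio derived from survival: compound-dosed mice over vehicle-dosed mice, all bearing a transplantable tumor.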

[1] = dose: 100.0 mg/kg/injection, schedule: Q04DX002 (ip), vehicle: Klucel (hydroxypropylcellulose) (HPC)
[2] = dose: 200.0 mg/kg/injection, schedule: Q04DX002 (ip), vehicle: Klucel (hydroxypropylcellulose) (HPC)
[3] = dose: 400.0 mg/kg/injection, schedule: Q04DX002 (ip), vehicle: Klucel (hydroxypropylcellulose) (HPC)
[4] = dose: 100.0 mg/kg/injection, schedule: Q01DX009 (ip), vehicle: Klucel (hydroxypropylcellulose) (HPC)
[5] = dose: 200.0 mg/kg/injection, schedule: Q01DX009 (ip), vehicle: Klucel (hydroxypropylcellulose) (HPC)
[6] = dose: 25.0 mg/kg/injection, schedule: Q01DX009 (ip), vehicle: saline with Tween-80
[7] = dose: 50.0 mg/kg/injection, schedule: Q01DX009 (ip), vehicle: saline with Tween-80
[8] = dose: 100.0 mg/kg/injection, schedule: Q01DX009 (ip), vehicle: saline with Tween-80
[9] = dose: 200.0 mg/kg/injection, schedule: Q01DX009 (ip), vehicle: saline with Tween-80
[10] = dose: 400.0 mg/kg/injection, schedule: Q01DX009 (ip), vehicle: saline with Tween-80
[11] = dose: 100.0 mg/kg/injection, schedule: Q04DX003 (ip), vehicle: saline
[12] = dose: 200.0 mg/kg/injection, schedule: Q04DX003 (ip), vehicle: saline
[13] = dose: 400.0 mg/kg/injection, schedule: Q01DX009 (ip), vehicle: Klucel (hydroxypropylcellulose) (HPC)
[14] = dose: 75.0 mg/kg/injection, schedule: Q01DX001 (ip), vehicle: saline
[15] = dose: 150.0 mg/kg/injection, schedule: Q01DX001 (ip), vehicle: saline
[16] = dose: 50.0 mg/kg/injection, schedule: Q01DX009 (ip), vehicle: Klucel (hydroxypropylcellulose) (HPC)
[17] = dose: 100.0 mg/kg/injection, schedule: Q04DX003 (ip), vehicle: saline with Tween-80
[18] = dose: 200.0 mg/kg/injection, schedule: Q04DX003 (ip), vehicle: saline with Tween-80
[19] = dose: 400.0 mg/kg/injection, schedule: Q04DX003 (ip), vehicle: saline with Tween-80
[20] = dose: 200.0 mg/kg/injection, schedule: Q04DX003 (ip), vehicle: Klucel (hydroxypropylcellulose) (HPC)
[21] = dose: 50.0 mg/kg/injection, schedule: Q01DX009 (ip), vehicle: saline
[22] = dose: 100.0 mg/kg/injection, schedule: Q01DX001 (ip), vehicle: saline
[23] = dose: 100.0 mg/kg/injection, schedule: Q01DX009 (ip), vehicle: saline
[24] = dose: 200.0 mg/kg/injection, schedule: Q01DX001 (ip), vehicle: saline
[25] = dose: 200.0 mg/kg/injection, schedule: Q01DX009 (ip), vehicle: saline

Measured: T/C

Cc1ccc(O)c(C2CC3CCC2C3)c1 (stereo not given)
inactive: dose: 100.0 mg/kg/injection, schedule: Q04DX003 (ip), vehicle: saline + alcohol 97 % of control | dose: 200.0 mg/kg/injection, schedule: Q04DX003 (ip), vehicle: saline + alcohol 92 % of control | dose: 400.0 mg/kg/injection, schedule: Q04DX003 (ip), vehicle: saline + alcohol 95 % of control

CC1(C)C(=O)C2CCC1C2 (stereo not given)
inactive: [1] 90 % of control | [2] 87 % of control | [3] 103 % of control

O=C1OC(=O)C2C3OC(C(Cl)C3Cl)C12 (stereo not given)
inactive: [4] 106 % of control | [5] 106 % of control

CS(=O)(=O)c1nc(Cl)nc(C(Cl)(Cl)Cl)c1Cl
inactive: [6] 101 % of control | [7] 95 % of control

CCC1(c2ccccc2)C(=O)NC(=O)N(Cc2ccccc2)C1=O (stereo not given)
inactive: [8] 109 % of control | dose: 100.0 mg/kg/injection, schedule: Q04DX002 (ip), vehicle: saline with Tween-80 89 % of control | [9] 98 % of control | dose: 200.0 mg/kg/injection, schedule: Q04DX002 (ip), vehicle: saline with Tween-80 95 % of control | [10] 98 % of control | dose: 400.0 mg/kg/injection, schedule: Q04DX002 (ip), vehicle: saline with Tween-80 103 % of control

OCC1OC(Oc2ccccc2)C(O)C(O)C1O (stereo not given)
inactive: [11] 96 % of control | [12] 105 % of control | dose: 400.0 mg/kg/injection, schedule: Q04DX003 (ip), vehicle: saline 100 % of control

C/C=C1/CC(C)C(O)(CO)C(=O)OCC2=CCN3CCC(OC1=O)C23 (stereo not given)
inactive: dose: 75.0 mg/kg/injection, schedule: Q01DX001 (ip), vehicle: carboxymethylcellulose (CMC) 100 % of control

CCCCCCCCCCCCNCCC#N
inactive: dose: 100.0 mg/kg/injection, schedule: Q04DX002 (sc), vehicle: olive oil, sesame oil, peanut oil 100 % of control | dose: 200.0 mg/kg/injection, schedule: Q04DX002 (sc), vehicle: olive oil, sesame oil, peanut oil 98 % of control | dose: 400.0 mg/kg/injection, schedule: Q04DX002 (sc), vehicle: olive oil, sesame oil, peanut oil 98 % of control

CCCCN1C(=O)CSC1=S
inactive: [1] 97 % of control | [2] 113 % of control | [3] 100 % of control

COc1ccc(O)c(/C=N\N=C\c2cc(OC)ccc2O)c1
inactive: [4] 106 % of control | [5] 101 % of control | [13] 95 % of control

CC(C)CC1(C(C)C)C(=O)NC(=O)NC1=O
inactive: [14] 89 % of control | [15] 98 % of control

CCOC(=O)c1cnc2c(ccc3cc(OC)ccc32)c1NCCCN(CC)CC
inactive: [16] 105 % of control | [4] 108 % of control | [5] 94 % of control

CC1N=C(c2ccccc2)C(c2ccccc2)=NC1C (stereo not given)
inactive: [17] 94 % of control | [18] 101 % of control | [19] 101 % of control

CC1(C)C2CCC(CN=C(N)CSS(=O)(=O)O)C1C2 (stereo not given)
inactive: dose: 3.13 mg/kg/injection, schedule: Q04DX002 (ip), vehicle: saline with Tween-80 91 % of control | dose: 6.25 mg/kg/injection, schedule: Q04DX002 (ip), vehicle: saline with Tween-80 100 % of control and 107 % of control | dose: 12.5 mg/kg/injection, schedule: Q04DX002 (ip), vehicle: saline with Tween-80 104 % of control | dose: 25.0 mg/kg/injection, schedule: Q04DX002 (ip), vehicle: saline with Tween-80 93 % of control

O=C(c1ccc(Cl)cc1)c1ccc(Cl)cc1
inactive: dose: 100.0 mg/kg/injection, schedule: Q04DX003 (ip), vehicle: Klucel (hydroxypropylcellulose) (HPC) 105 % of control | [20] 100 % of control | dose: 400.0 mg/kg/injection, schedule: Q04DX003 (ip), vehicle: Klucel (hydroxypropylcellulose) (HPC) 96 % of control

O=C(NO)N/N=C/C=N/NC(=O)NO
inactive: [14] 100 % of control | [15] 100 % of control | dose: 300.0 mg/kg/injection, schedule: Q01DX001 (ip), vehicle: saline 107 % of control

Cc1ccc(C(C)C)c(O)c1C(=O)O
inactive: dose: 100.0 mg/kg/injection, schedule: Q01DX001 (ip), vehicle: Klucel (hydroxypropylcellulose) (HPC) 96 % of control | dose: 200.0 mg/kg/injection, schedule: Q01DX001 (ip), vehicle: Klucel (hydroxypropylcellulose) (HPC) 104 % of control

CN1CC(=O)n2c(cc3ccccc32)C1=O
inactive: dose: 100.0 mg/kg/injection, schedule: Q04DX002 (ip), vehicle: saline 110 % of control | dose: 400.0 mg/kg/injection, schedule: Q04DX002 (ip), vehicle: saline 105 % of control

COc1cccc(NC(=O)Nc2cccc(C(F)(F)F)c2)c1
inactive: [4] 96 % of control | [5] 101 % of control | [13] 101 % of control

O=C(O)CCC(CC(=O)O)c1ccccc1 (stereo not given)
inactive: [4] 97 % of control | [5] 96 % of control | [13] 93 % of control

COc1cc(C(=O)CO)cc(OC)c1OC(C)=O
inactive: dose: 5.0 mg/kg/injection, schedule: Q01DX001 (ip), vehicle: saline 97 % of control | dose: 10.0 mg/kg/injection, schedule: Q01DX001 (ip), vehicle: saline 103 % of control | dose: 20.0 mg/kg/injection, schedule: Q01DX001 (ip), vehicle: saline 89 % of control | dose: 40.0 mg/kg/injection, schedule: Q01DX001 (ip), vehicle: saline 97 % of control | dose: 80.0 mg/kg/injection, schedule: Q01DX001 (ip), vehicle: saline 92 % of control

Cc1ccc(C(=O)C[S+](C)C)c(C)c1
inactive: dose: 25.0 mg/kg/injection, schedule: Q01DX009 (ip), vehicle: saline 98 % of control | [21] 95 % of control | [17] 102 % of control

NNC(=O)Cc1ccc([N+](=O)[O-])cc1
inactive: [21] 94 % of control | [22] 97 % of control | [23] 103 % of control | [24] 94 % of control | [25] 105 % of control

CC(=O)OC1CCC(CC2CCCCC2)CC1 (stereo not given)
inactive: [16] 94 % of control | [4] 100 % of control | [5] 100 % of control | [13] 93 % of control

Nc1ccc2c(c1)-c1ccc(F)cc1C2
inactive: dose: 100.0 mg/kg/injection, schedule: Q01DX001 (ip), vehicle: carboxymethylcellulose (CMC) 89 % of control | dose: 200.0 mg/kg/injection, schedule: Q01DX001 (ip), vehicle: carboxymethylcellulose (CMC) 100 % of control | dose: 400.0 mg/kg/injection, schedule: Q01DX001 (ip), vehicle: carboxymethylcellulose (CMC) 94 % of control

CC[N+](C)(CC)CCCN1C(=O)c2ccccc2S1(=O)=O
inactive: dose: 22.0 mg/kg/injection, schedule: Q01DX Z (ip), vehicle: methylcellulose (MC) 94 % of control | dose: 33.0 mg/kg/injection, schedule: Q01DX Z (ip), vehicle: methylcellulose (MC) 96 % of control | dose: 50.0 mg/kg/injection, schedule: Q01DX Z (ip), vehicle: methylcellulose (MC) 91 % of control

CC/C(=C/c1cccc(OC)c1OC)[N+](=O)[O-]
inactive: dose: 12.5 mg/kg/injection, schedule: Q01DX009 (ip), vehicle: saline with Tween-80 105 % of control | [6] 98 % of control | [7] 96 % of control | [17] 107 % of control | [18] 90 % of control

O=C(O)c1ccccc1/C=C/c1ccccc1
inactive: [8] 96 % of control | [17] 104 % of control | [9] 100 % of control | [18] 101 % of control | [10] 96 % of control | [19] 101 % of control

CC(NC(=O)OCc1ccccc1)C(=O)Oc1cc(Cl)c(Cl)cc1Cl (stereo not given)
inactive: [22] 92 % of control | [23] 95 % of control | [11] 91 % of control | [24] 97 % of control | [25] 93 % of control | [20] 87 % of control | [12] 91 % of control | dose: 400.0 mg/kg/injection, schedule: Q01DX001 (ip), vehicle: saline 92 % of control | dose: 400.0 mg/kg/injection, schedule: Q01DX009 (ip), vehicle: saline 92 % of control
